{
  "source": "patent US4505908A",
  "about": "“7-Bromo-5-(2-halophenyl)-1H-2,3-dihydro-1,4-benzodiazepine pharmaceuticals” (priority 1981, dated 1985)",
  "key": {"[1]": {"assay": "Rotating rod test (muscular coordination impairing activity)", "settings": "mouse, in vivo, po", "protocol": "The ability of muscular coordination is determined in the mouse by the rotating rod test according to Blum (1973).\nFor this test, only male NMRI mice are used, which can support themselves for five minutes on a rotating rod with a diameter of 4 cm at a rotational speed of 12 rotations per minute.\nThe test substances are administered orally to the animals one hour before the commencement of the test in the form of a 2% suspension in tylose solution. The animals are each placed twice for a period of 60 seconds onto the rotating rod. Animals which cannot support themselves on the rotating rod for a total of 110 seconds are regarded as having impaired muscular coordination. The dose which brings about an impairment in 50% of the animals is regarded as the ED50.\n(§1) In columns 5 and 6 of the Table, the quotients which result from dividing the doses impairing muscular coordination or muscle tone by the anxiolytically effective doses are indicated."}, "[2]": {"assay": "Traction test (muscle relaxant activity / disturbance of muscle tone)", "settings": "mouse, in vivo, po", "protocol": "In this test the influence of the test substances on the muscle tone is evaluated. The test substance is administered orally to mice. After 120 minutes the mice are suspended by their front paws on a thin, horizontally taut wire. The dose at which exactly half the animals fail to also grasp the wire with their hind paws within 5 seconds is regarded as the ED50.\nas §1"}, "[3]": {"assay": "Acute Toxicity (7-day, single application per os)", "settings": "in vivo, po, single application p.o., NMRI mouse on an empty stomach", "protocol": "The acute 7-day toxicity is determined after a single application per os on the white NMRI mouse, on an empty stomach, and the LD50 values are calculated by means of electronic data processing through a probit analysis."}},
  "data": [
    {"molecule": "COCC1CN=C(c2ccccc2Cl)c2cc(Br)ccc2N1C", "note": "(stereo not drawn)", "values": [
      {"measurement": "selectivity ratio", "setting": "[1]", "result": 1.11},
      {"measurement": "selectivity ratio", "setting": "[2]", "result": 7.38},
      {"measurement": "LD50 at 168 h", "setting": "[3]", "result": "> 1470", "unit": "mg/kg"}
    ]},
    {"molecule": "CN1c2ccc(Br)cc2C(c2ccccc2Cl)=NCC1CO", "note": "(stereo not drawn)", "values": [
      {"measurement": "selectivity ratio", "setting": "[1]", "result": 1.3},
      {"measurement": "selectivity ratio", "setting": "[2]", "result": 38.8},
      {"measurement": "LD50 at 168 h", "setting": "[3]", "result": "> 1470", "unit": "mg/kg"}
    ]},
    {"molecule": "COCC1CN=C(c2ccccc2Cl)c2cc(Br)ccc2N1", "note": "(stereo not drawn) [Ex 2, 7-Bromo-2-methoxymethyl-5-(2-chlorophenyl)-1H-2,3-dihydro-1,4-benzodiazepin]", "values": [
      {"measurement": "selectivity ratio", "setting": "[1]", "result": 5.38},
      {"measurement": "selectivity ratio", "setting": "[2]", "result": 54.2},
      {"measurement": "LD50 at 168 h", "setting": "[3]", "result": 1330, "unit": "mg/kg"}
    ]},
    {"molecule": "OCC1CN=C(c2ccccc2Cl)c2cc(Br)ccc2N1", "note": "(stereo not drawn) [Ex 4, 7-Bromo-2-hydroxymethyl-5-(2-chlorophenyl)-1H-2,3-dihydro-1,4-benzodiazepine]", "values": [
      {"measurement": "selectivity ratio", "setting": "[1]", "result": 8.6},
      {"measurement": "selectivity ratio", "setting": "[2]", "result": 164},
      {"measurement": "LD50 at 168 h", "setting": "[3]", "result": "> 1370", "unit": "mg/kg"}
    ]}
  ]
}
